Data on 15 compounds can be found in ChEMBL document CHEMBL1909046, “DrugMatrix in vitro pharmacology data”.

As a reminder, the IC50 is the concentration that gives 50% inhibition. As a reminder, the Ki is a dissociation constant, usually derived from enzyme kinetics or from competition with a known ligand.

Experiment [1] addresses Insulin receptor (Rattus norvegicus, UniProt P15127). It counts as cell membranes, Wistar, Liver, Membrane.
Experiment [2] in a line: DRUGMATRIX: Phorbol Ester radioligand binding (ligand: [3H] PDBu). It counts as cell membranes, Mus musculus, ICR, Brain, Membrane. The settings on record: Not Active = under 50% inhibition at 10 µM.
Experiment [3] concerns the target T1, 5-hydroxytryptamine receptor 2C (Homo sapiens, UniProt P28335).
T1 sequence (P28335 whole entry): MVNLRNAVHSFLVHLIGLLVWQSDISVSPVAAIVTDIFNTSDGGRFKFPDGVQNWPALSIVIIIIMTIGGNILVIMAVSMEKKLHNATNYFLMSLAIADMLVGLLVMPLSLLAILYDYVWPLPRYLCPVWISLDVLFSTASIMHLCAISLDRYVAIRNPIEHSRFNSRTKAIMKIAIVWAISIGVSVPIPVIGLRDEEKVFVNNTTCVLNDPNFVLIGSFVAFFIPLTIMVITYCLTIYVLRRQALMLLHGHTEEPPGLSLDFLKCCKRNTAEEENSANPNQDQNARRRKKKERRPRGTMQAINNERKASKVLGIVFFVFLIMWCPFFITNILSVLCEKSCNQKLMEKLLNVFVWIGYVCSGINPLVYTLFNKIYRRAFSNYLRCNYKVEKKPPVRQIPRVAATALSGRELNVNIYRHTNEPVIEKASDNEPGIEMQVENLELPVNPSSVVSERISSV
The experiment is described as follows: DRUGMATRIX: Serotonin (5-Hydroxytryptamine) 5-HT2C radioligand binding (ligand: [3H] Mesulergine). It counts as cell membranes, CHO-K1, Membrane. The settings on record: Not Active = under 50% inhibition at 10 µM; for Ki: read-out: Ki.

Experiment [4] in a line: DRUGMATRIX: Leukotriene, BLT (LTB4) radioligand binding (ligand: [3H]LTB4). It counts as cell membranes, Membrane. Particulars: u-937; Not Active = under 50% inhibition at 10 µM.
Experiment [5] is described as follows: DRUGMATRIX: Serotonin (5-Hydroxytryptamine) 5-HT3 radioligand binding (ligand: [3H] GR-65630). It counts as cell membranes, Membrane. Particulars: hek293; Not Active = under 50% inhibition at 10 µM.
The target of experiment [6] is Mu-type opioid receptor (Homo sapiens, UniProt P35372). Kind of experiment: DRUGMATRIX: Opiate mu (OP3, MOP) radioligand binding (ligand: [3H] Diprenorphine). It counts as cell membranes, CHO-K1, Membrane. Particulars: Not Active = under 50% inhibition at 10 µM.
Sequence of Mu-type opioid receptor (P35372 whole entry): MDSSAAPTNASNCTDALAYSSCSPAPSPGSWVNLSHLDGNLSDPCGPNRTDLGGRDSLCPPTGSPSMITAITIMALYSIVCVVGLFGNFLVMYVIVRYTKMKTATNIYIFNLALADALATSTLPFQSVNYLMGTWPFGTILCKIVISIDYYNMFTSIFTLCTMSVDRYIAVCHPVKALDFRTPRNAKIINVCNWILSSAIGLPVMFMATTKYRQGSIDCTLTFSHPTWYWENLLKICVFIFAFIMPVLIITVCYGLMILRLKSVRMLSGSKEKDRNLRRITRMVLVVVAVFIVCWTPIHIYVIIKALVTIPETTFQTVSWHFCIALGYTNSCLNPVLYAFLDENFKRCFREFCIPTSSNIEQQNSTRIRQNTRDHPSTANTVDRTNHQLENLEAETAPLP

Sequence of Insulin receptor (P15127 27-759 limits assumed): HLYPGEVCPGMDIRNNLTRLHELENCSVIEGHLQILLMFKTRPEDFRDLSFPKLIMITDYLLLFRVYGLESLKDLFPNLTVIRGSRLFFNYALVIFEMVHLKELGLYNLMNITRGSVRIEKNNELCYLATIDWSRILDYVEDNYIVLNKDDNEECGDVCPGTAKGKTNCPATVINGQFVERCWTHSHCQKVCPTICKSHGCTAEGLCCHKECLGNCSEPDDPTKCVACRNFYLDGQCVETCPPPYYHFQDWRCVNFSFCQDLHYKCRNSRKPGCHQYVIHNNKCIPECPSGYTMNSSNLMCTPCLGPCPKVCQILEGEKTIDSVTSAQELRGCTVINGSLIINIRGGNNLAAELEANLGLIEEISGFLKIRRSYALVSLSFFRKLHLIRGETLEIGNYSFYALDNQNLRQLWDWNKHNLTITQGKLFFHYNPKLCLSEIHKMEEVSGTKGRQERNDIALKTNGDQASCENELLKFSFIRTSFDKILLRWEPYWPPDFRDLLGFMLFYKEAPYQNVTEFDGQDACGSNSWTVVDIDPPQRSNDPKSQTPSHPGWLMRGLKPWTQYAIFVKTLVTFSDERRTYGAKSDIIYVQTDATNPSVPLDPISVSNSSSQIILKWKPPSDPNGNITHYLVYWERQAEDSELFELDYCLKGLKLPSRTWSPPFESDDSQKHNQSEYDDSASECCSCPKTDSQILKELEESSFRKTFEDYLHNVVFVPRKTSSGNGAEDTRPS
Sequence of Insulin receptor (P15127 764-1383 limits assumed): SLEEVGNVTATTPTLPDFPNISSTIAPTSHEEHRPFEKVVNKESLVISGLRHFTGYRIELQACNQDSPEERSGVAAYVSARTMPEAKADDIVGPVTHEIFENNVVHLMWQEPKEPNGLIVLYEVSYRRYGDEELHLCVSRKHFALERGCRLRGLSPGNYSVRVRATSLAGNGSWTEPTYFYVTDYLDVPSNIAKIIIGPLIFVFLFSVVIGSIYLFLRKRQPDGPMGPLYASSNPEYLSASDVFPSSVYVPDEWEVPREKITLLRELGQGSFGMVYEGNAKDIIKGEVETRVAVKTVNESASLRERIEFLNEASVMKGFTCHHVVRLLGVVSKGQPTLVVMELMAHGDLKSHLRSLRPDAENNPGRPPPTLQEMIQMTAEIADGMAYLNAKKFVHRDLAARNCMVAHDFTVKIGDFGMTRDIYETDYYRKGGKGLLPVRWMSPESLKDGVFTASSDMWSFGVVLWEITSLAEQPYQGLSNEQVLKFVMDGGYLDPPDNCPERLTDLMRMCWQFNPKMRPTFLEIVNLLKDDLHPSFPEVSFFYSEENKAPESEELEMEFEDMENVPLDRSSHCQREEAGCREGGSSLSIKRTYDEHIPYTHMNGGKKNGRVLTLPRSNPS

Turning to `CC(C)[C@@]1(NC(=O)[C@@H]2C[C@@H]3c4cccc5[nH]cc(c45)C[C@H]3N(C)C2)O[C@@]2(O)[C@@H]3CCCN3C(=O)[C@H](Cc3ccccc3)N2C1=O.CS(=O)(=O)O` [DIHYDROERGOCRISTINE MESYLATE], the IC50 entry is “Not Active” in experiment [1]; “Not Active” in experiment [2]; 239 nM in experiment [3] (read-out: IC50); “Not Active” in experiment [4]; “Not Active” in experiment [5]; 850 nM in experiment [6] (read-out: IC50). The inhibition constant Ki result was “Not Active” in experiment [2]; 125 nM in experiment [3]; “Not Active” in experiment [4]; “Not Active” in experiment [5]; 345 nM in experiment [6].
As to `CC(=O)O[C@@]12CO[C@@H]1C[C@H](O)[C@@]1(C)C(=O)[C@H](O)C3=C(C)[C@@H](OC(=O)[C@H](O)[C@@H](NC(=O)OC(C)(C)C)c4ccccc4)C[C@@](O)([C@@H](OC(=O)c4ccccc4)[C@H]21)C3(C)C.O.O.O` [DOCETAXEL], the 50% inhibitory concentration (IC50) entry in experiment [1], in experiment [2], in experiment [3] (cho-k1), in experiment [4], in experiment [5] and in experiment [6] (cho-k1) was “Not Active” in each case. The Ki result in experiment [2], in experiment [4] and in experiment [5] was “Not Active” throughout.
As for `C[C@H]1c2cccc(O)c2C(=O)C2=C(O)[C@]3(O)C(=O)C(C(N)=O)=C(O)[C@@H](N(C)C)[C@@H]3[C@@H](O)[C@@H]21.O` [DOXYCYCLINE], the half-inhibitory concentration (IC50) result in experiment [1], in experiment [2], in experiment [3] (cho-k1), in experiment [4], in experiment [5] and in experiment [6] (cho-k1) was “Not Active” in each case. Also, the inhibition constant (Ki) entry in experiment [2], in experiment [4] and in experiment [5] was “Not Active” each time.
On to `O=C(CCCN1CC=C(n2c(=O)[nH]c3ccccc32)CC1)c1ccc(F)cc1` [DROPERIDOL], for which the IC50 result in experiment [1] was “Not Active”; in experiment [2], “Not Active”; in experiment [3] (read-out: IC50), 454 nM; in experiment [4] it was “Not Active”; in experiment [5], “Not Active”; in experiment [6] (cho-k1) it was “Not Active”. Further, the inhibitory constant (Ki) result in experiment [2] is “Not Active”; in experiment [3], 238 nM; in experiment [4] it was “Not Active”; in experiment [5] it was “Not Active”.
With `CC(C)[C@H]1C(=O)N2CCC[C@H]2[C@]2(O)O[C@](NC(=O)[C@@H]3C=C4c5cccc6[nH]cc(c56)C[C@H]4N(C)C3)(C(C)C)C(=O)N12` [ERGOCORNINE], the 50% inhibitory concentration (IC50) entry in experiment [1] was “Not Active”; in experiment [2], “Not Active”; in experiment [3] (read-out: IC50) it was 104 nM; in experiment [4] it was “Not Active”; in experiment [5] it was “Not Active”; in experiment [6] (cho-k1), “Not Active”. For the same compound, the inhibitory constant (Ki) result in experiment [2] is “Not Active”; in experiment [3] it was 55 nM; in experiment [4] it was “Not Active”; in experiment [5] it was “Not Active”.
For `C[C@]12CC[C@@H]3c4ccc(O)cc4CC[C@H]3[C@@H]1CCC2=O` [ESTRONE], the concentration for half-maximal inhibition (IC50) result in experiment [1], in experiment [2], in experiment [3] (cho-k1), in experiment [4], in experiment [5] and in experiment [6] (cho-k1) was “Not Active” each time. For the same compound, the Ki entry in experiment [2], in experiment [4] and in experiment [5] was “Not Active” in each case.
Turning to `OC(Cn1cncn1)(Cn1cncn1)c1ccc(F)cc1F` [FLUCONAZOLE], the half-inhibitory concentration (IC50) entry in experiment [1], in experiment [2], in experiment [3] (cho-k1), in experiment [4], in experiment [5] and in experiment [6] (cho-k1) was “Not Active” in each case. Moreover, the inhibitory constant (Ki) result in experiment [2], in experiment [4] and in experiment [5] was “Not Active” throughout.
Regarding `CC(C)C(=O)Nc1ccc([N+](=O)[O-])c(C(F)(F)F)c1` [FLUTAMIDE], the IC50 result in experiment [1], in experiment [2], in experiment [3] (cho-k1), in experiment [4], in experiment [5] and in experiment [6] (cho-k1) was “Not Active” in each case. The Ki entry in experiment [2], in experiment [4] and in experiment [5] was “Not Active” each time.
Consider `N=C(N)NCCN1CCCCCCC1` [GUANETHIDINE], for which the IC50 result in experiment [1], in experiment [2], in experiment [3] (cho-k1), in experiment [4], in experiment [5] and in experiment [6] (cho-k1) was “Not Active” each time. Further, the Ki result in experiment [2], in experiment [4] and in experiment [5] was “Not Active” each time.
On to `CC1(C)O[C@@H]2C[C@H]3[C@@H]4CCC5=CC(=O)CC[C@]5(C)[C@@]4(F)[C@@H](O)C[C@]3(C)[C@]2(C(=O)CCl)O1` [HALCINONIDE], for which the half-maximal inhibitory concentration (IC50) result in experiment [1], in experiment [2], in experiment [3] (cho-k1), in experiment [4], in experiment [5] and in experiment [6] (cho-k1) was “Not Active” throughout. Also, the Ki entry in experiment [2], in experiment [4] and in experiment [5] was “Not Active” throughout.
For `O=c1[nH]c(=O)n([C@H]2C[C@H](O)[C@@H](CO)O2)cc1I` [IDOXURIDINE], the half-inhibitory concentration (IC50) result in experiment [1], in experiment [2], in experiment [3] (cho-k1), in experiment [4], in experiment [5] and in experiment [6] (cho-k1) was “Not Active” throughout. Besides, the Ki result in experiment [2], in experiment [4] and in experiment [5] was “Not Active” in each case.
As to `CC1Cc2ccccc2N1NC(=O)c1ccc(Cl)c(S(N)(=O)=O)c1` (centres undefined) [INDAPAMIDE], the 50% inhibitory concentration (IC50) result in experiment [1], in experiment [2], in experiment [3] (cho-k1), in experiment [4], in experiment [5] and in experiment [6] (cho-k1) was “Not Active” in each case. Moreover, the Ki result in experiment [2], in experiment [4] and in experiment [5] was “Not Active” in each case.
For `Nc1nc(N)nc(-c2cc(Cl)ccc2Cl)n1.O=C(O)/C=C\C(=O)O` [IRSOGLADINE MALEATE], the 50% inhibitory concentration (IC50) entry in experiment [1], in experiment [2], in experiment [3] (cho-k1), in experiment [4], in experiment [5] and in experiment [6] (cho-k1) was “Not Active” throughout. Moreover, the Ki result in experiment [2], in experiment [4] and in experiment [5] was “Not Active” in each case.
With `CCC(C)n1ncn(-c2ccc(N3CCN(c4ccc(OCC5COC(Cn6cncn6)(c6ccc(Cl)cc6Cl)O5)cc4)CC3)cc2)c1=O` (centres undefined) [ITRACONAZOLE], the concentration for half-maximal inhibition (IC50) entry in experiment [1], in experiment [2], in experiment [3] (cho-k1), in experiment [4], in experiment [5] and in experiment [6] (cho-k1) was “Not Active” in each case. Besides, the Ki entry in experiment [2], in experiment [4] and in experiment [5] was “Not Active” throughout.
For the compound `CCCCN1CCCC[C@H]1C(=O)Nc1c(C)cccc1C` [LEVOBUPIVACAINE], the IC50 result in experiment [1], in experiment [2], in experiment [3] (cho-k1), in experiment [4], in experiment [5] and in experiment [6] (cho-k1) was “Not Active” in each case. The inhibitory constant (Ki) result in experiment [2], in experiment [4] and in experiment [5] was “Not Active” each time.
